Where “and” joins values, the source holds several entries; their conditions need not be identical. Identical values can stand only once. Toxic doses and inconclusive results are not listed.
Tested on: B16 melanoma ip, C57BL/6 mice, median survival T/C
Experiment: NCI In Vivo Anticancer Drug Screen. Data for tumor model B16 Melanoma (intraperitoneal) in C57BL/6 mice
Conditions: endpoint: median survival time, higher = longer survival
Experimental: The antitumor activity of compounds was measured in mice bearing transplantable tumors. Survival or tumor size were measured and the results are expressed as the measurement made in the treated group (T) divided by the measurement made in the vehicle treated control group (C). The tumor model used in this assay is B16 Melanoma (intraperitoneal) in C57BL/6 mice

[1] = dose: 25.0 mg/kg/injection, schedule: Q01DX009 (ip), vehicle: saline
[2] = dose: 50.0 mg/kg/injection, schedule: Q01DX009 (ip), vehicle: saline
[3] = dose: 100.0 mg/kg/injection, schedule: Q01DX009 (ip), vehicle: saline
[4] = dose: 0.25 mg/kg/injection, schedule: Q01DX009 (ip), vehicle: saline
[5] = dose: 0.5 mg/kg/injection, schedule: Q01DX009 (ip), vehicle: saline
[6] = dose: 1.0 mg/kg/injection, schedule: Q01DX009 (ip), vehicle: saline
[7] = dose: 10.0 mg/kg/injection, schedule: Q01DX009 (ip), vehicle: saline
[8] = dose: 20.0 mg/kg/injection, schedule: Q01DX009 (ip), vehicle: saline
[9] = dose: 62.5 mg/kg/injection, schedule: Q01DX009 (ip), vehicle: saline
[10] = dose: 125.0 mg/kg/injection, schedule: Q01DX009 (ip), vehicle: saline
[11] = dose: 250.0 mg/kg/injection, schedule: Q01DX009 (ip), vehicle: saline
[12] = dose: 31.3 mg/kg/injection, schedule: Q01DX009 (ip), vehicle: saline
[13] = dose: 0.13 mg/kg/injection, schedule: Q01DX009 (ip), vehicle: saline
[14] = dose: 6.25 mg/kg/injection, schedule: Q01DX009 (ip), vehicle: saline

With `CN1Cc2c(ccc3c2OCO3)[C@@H]2[C@H](O)Cc3cc4c(cc3[C@@H]21)OCO4` the T/C (dose: 62.5 mg/kg/injection, schedule: Q01DX009 (ip), vehicle: saline with Tween-80) was 107 % of control, the T/C (dose: 125.0 mg/kg/injection, schedule: Q01DX009 (ip), vehicle: saline with Tween-80) was 110 % of control and the T/C (dose: 250.0 mg/kg/injection, schedule: Q01DX009 (ip), vehicle: saline with Tween-80) was 117 % of control.

`CCc1nc(N)nc(N)c1-c1ccc(Cl)cc1` was tested, and the T/C [1] was 96 % of control, the T/C [2] was 100 % of control and the T/C [3] was 93 % of control. For the same compound, the T/C (dose: 200.0 mg/kg/injection, schedule: Q01DX009 (ip), vehicle: saline) was 113 % of control.

For `COc1cccc2c1C(=O)c1c(O)c3c(c(O)c1C2=O)C[C@@](O)(C(C)=O)C[C@@H]3OC1CC(N)C(O)C(C)O1` (stereo partly specified), the T/C [4] was 177 % of control, the T/C [5] was 188 % of control and the T/C [6] was 277 % of control. For the same compound, the T/C (dose: 2.0 mg/kg/injection, schedule: Q01DX009 (ip), vehicle: saline) was 186 % of control.

For `O=c1[nH]c(=O)n(C2CC(O)C(CO)O2)cc1F` (stereo unspecified), the T/C [7] was 113 % of control, the T/C [8] was 120 % of control and the T/C (dose: 40.0 mg/kg/injection, schedule: Q01DX009 (ip), vehicle: saline) was 123 % of control. For the same compound, the T/C (dose: 80.0 mg/kg/injection, schedule: Q01DX009 (ip), vehicle: saline) was 154 % of control and the T/C (dose: 160.0 mg/kg/injection, schedule: Q01DX009 (ip), vehicle: saline) was 151 % of control.

For `O=c1[nH]c(=O)c2n[nH]nc2[nH]1`, the T/C [9] was 96 % of control, the T/C [10] was 100 % of control and the T/C [11] was 92 % of control. The T/C (dose: 500.0 mg/kg/injection, schedule: Q01DX009 (ip), vehicle: saline) was 92 % of control.

`Nc1ncnc2c(C3OC(CO)C(O)C3O)[nH]nc12` (stereo unspecified) was tested, and the T/C (dose: 8.0 mg/kg/injection, schedule: Q01DX009 (ip), vehicle: saline) was 153 % of control, the T/C (dose: 16.0 mg/kg/injection, schedule: Q01DX009 (ip), vehicle: saline) was 113 % of control and the T/C [12] was 157 % of control.

In the case of `OCC1OC(n2cnc3c(Cl)ncnc32)C(O)C1O` (stereo unspecified), the T/C [12] is reported as 106 % of control and 107 % of control, the T/C [9] is reported as 93 % of control and 100 % of control and the T/C [10] is reported as 93 % of control and 100 % of control. The T/C [11] was 86 % of control and 100 % of control.

`CCCC/C=C/CCCCCCCC(=O)OCCCCCCCCCCCCCCCC` was tested, and the T/C (dose: 400.0 mg/kg/injection, schedule: Q01DX001 (ip), vehicle: saline with Tween-80) was 86 % of control.

With `CC(C)=CCC/C(C)=C/CO` the T/C (dose: 15.6 mg/kg/injection, schedule: Q01DX009 (ip), vehicle: saline) was 93 % of control, the T/C [12] was 96 % of control and the T/C [9] was 86 % of control. The T/C [10] was 86 % of control.

`NC(Cc1ccc(N(CCCl)CCCl)cc1)C(=O)O` (stereo unspecified) was tested, and the T/C (dose: 4.0 mg/kg/injection, schedule: Q01DX009 (ip), vehicle: saline) was 200 % of control and 268 % of control and 350 % of control.

`CN1CCN(CCCN2c3ccccc3Sc3ccc(C(F)(F)F)cc32)CC1` was tested, and the T/C [1] was 107 % of control.

With `COc1ccc2c3c(c4cc(OC)c(OC)cc4c2c1)C[C@H]1CCCCN1C3` the T/C [13] was 100 % of control, the T/C [4] was 100 % of control and 119 % of control and the T/C [5] was 113 % of control. For the same compound, the T/C [6] was 90 % of control.

With `COc1cc(C[C@H]2c3cc(OC)c(OC)cc3CCN2C)c(Oc2cc3c(cc2OC)-c2c(OC)c(OC)cc4c2[C@H](C3)N(C)CC4)cc1OC` the T/C [1] was 96 % of control, the T/C [2] was 96 % of control and the T/C [3] was 92 % of control.

With `C1CN1c1nc(N2CC2)nc(N2CC2)n1` the T/C [13] was 103 % of control and 116 % of control and 120 % of control, the T/C [4] was 109 % of control and 120 % of control and 122 % of control and the T/C [5] was 86 % of control. The T/C [6] was 100 % of control.

With `Cn1c(=O)c2ncnnc2n(C)c1=O` the T/C [14] was 106 % of control and the T/C (dose: 12.5 mg/kg/injection, schedule: Q01DX009 (ip), vehicle: saline) was 103 % of control.

With `O=NN(CCCl)C(=O)Nc1ccc(CCCl)cc1` the T/C (dose: 3.13 mg/kg/injection, schedule: Q01DX009 (ip), vehicle: saline) was 267 % of control and the T/C [14] was 217 % of control.

In the case of `COc1ccc(-c2c(C)c(C(=O)O)nc(-c3ccc4c(O)c(OC)c5c(c4n3)=NC(C)(C)N=5)c2N)c(O)c1OC`, the T/C [7] is reported as 124 % of control and the T/C [8] is reported as 107 % of control.

Source: PubChem BioAssay AID198 (DTP/NCI, 2004)
